Laboratory results from patent US8440814B2, “Derivatives of cyclodextrins, process for their preparation and their use in particular for solubilizing pharmacologically active substances” (Centre National de la Recherche Scientifique, priority 2003, dated 2013).
“And” between values parts separate entries of the source, which are not always exact repeats. Equal entries are not always repeated. Where two headings read alike, the source gives them in different places.

How the values were obtained:
[1] = as described in WO 95/19994; cited from earlier work
solubility in water = type: physicochemical
[2] = solubilization of Taxotere in water by inclusion in the cyclodextrin derivative; type: physicochemical; settings: 50 mmol·L^−1 of compound in sterile water; for solubility of the Taxotere in a solution of the compound: stirred at 70° C., stays in solution at ambient temperature
From the text: These inclusion complexes can be prepared for example by adding to a solution or a suspension of the compound of the invention of formula (I) the pharmacologically active molecule in solution or in the pure state. The inclusion complex thus formed can be isolated by freeze-drying.
In the case of the compounds of the taxol family, such as Taxotere®, it is also possible to disperse this product in the pure state in a sterile solution of a compound according to the invention.
Starting with Taxotere in the pure state, 2.1 mg ([…]) of this product is dispersed in 1 mL of a solution containing 50 mmol·L^−1 of compound No. 1 in sterile water, then the suspension obtained is stirred at 70° C. until a clear solution is obtained which indicates the complexing of the Taxotere.

[3] = biological target: concanavalin A (ConA) lectin (Canavalia ensiformis, UniProt P02866); type: binding
Procedure: The affinity of the thioureidocysteaminyl-cyclodextrins of the invention for specific membrane lectins was evaluated in vitro following the ELLA (Enzyme-Linked Lectin Assay) protocol. […] 2002, 102, pp. 555-578. This technique measures the capacity of a soluble mono- or oligosaccharide ligand to inhibit the association between a complementary lectin and another reference ligand fixed to a plastic support microplate.
The IC50 values are inversely proportional to the respective affinities.
The cells of a microtitre plate (Nunc-Immuno™ plates, MaxiSorp™) are loaded with 100 μL of a stock solution of yeast mannan (Sigma, 10 μg·mL^−1) in a saline phosphate buffer solution (PBS; pH 7.3 containing Ca^2+ 0.1 mM and Mn^2+ 0.1 mM) for one night at ambient temperature. The cells are washed (3×300 μL) with a buffer solution containing 0.05% (v/v) of Tween 20 (PBST). This washing protocol is repeated after each incubation during the test. A bovine serum albumin solution (BSA, 1%) in PBS (150 μL/cell) is then added to the cells followed by incubation for 1 hour at 37° C., then washed.
In order to determine the optimal lectin concentration for inhibition studies, 100 μL of a series of concanavalin A solutions marked with radish peroxidase of 10^−1 to 10^−5 mg·mL^−1 in PBS is added to the cells loaded with mannan, and treated as indicated above. After incubation at 37° C. for 1 hour, the plates are washed (PBST) and a solution (50 μL) of the diammonium salt of 2,2′-azinobis(3-ethylbenzothiazoline-6-sulphonic) acid (ABTS, 1 mg in 4 mL) in citrate buffer (0.2 M, pH 4.0 with 0.015% hydrogen peroxide) is added. The reaction is stopped after 20 minutes by adding 50 μL/cell of sulphuric acid 1 M and the absorbances are measured at 415 nm using an ELISA reader. The control cells contained citrate-phosphate buffer.
In a series of experiments ConA marked with radish peroxidase in an appropriate concentration as indicated above (60 μL/cell) is added to the solutions of each compound (60 μL/cell) in PBS sequentially diluted twice, in a Nunclon™ (Delta) microtitre plate which is incubated at 37° C. for 1 hour. The solutions (100 μL/cell) are then transferred onto a microtitre plate loaded with mannan and treated as indicated above, which is then incubated at 37° C. for 1 hour. The cells are washed (PBST) and the ABTS solution (50 μL/cell) is added. After 20 minutes, the reaction is stopped (sulphuric acid) and the absorbances are measured. The percentage of inhibition is calculated with the formula: […]

6^I-S-α-maltosyl-6^I-thiocyclomaltoheptaose
solubility in water of Taxotere on adding the cyclodextrin derivative to its aqueous suspension [1]: up to 6.5 g/L

Cl.Cl.Cl.Cl.Cl.Cl.Cl.NCCSC[C@H]1O[C@@H]2O[C@H]3[C@H](O)[C@@H](O)[C@@H](O[C@H]4[C@H](O)[C@@H](O)[C@@H](O[C@H]5[C@H](O)[C@@H](O)[C@@H](O[C@H]6[C@H](O)[C@@H](O)[C@@H](O[C@H]7[C@H](O)[C@@H](O)[C@@H](O[C@H]8[C@H](O)[C@@H](O)[C@@H](O[C@H]1[C@H](O)[C@H]2O)O[C@@H]8CSCCN)O[C@@H]7CSCCN)O[C@@H]6CSCCN)O[C@@H]5CSCCN)O[C@@H]4CSCCN)O[C@@H]3CSCCN [Compound No. 1, heptakis[6-S-(2-aminoethyl-6-thio)]cyclomalto heptaose heptahydrochloride]
solubility in water (solubility in water): 500 g·L^−1 and 323 mmol·L^−1
increase in the solubility of the Taxotere versus absence of cyclodextrin [2]: ~525 times
solubility of the Taxotere in a solution of the compound [2]: 2100 µg/mL

OC[C@H]1O[C@H](NC(=S)NCCSC[C@H]2O[C@@H]3O[C@H]4[C@H](O)[C@@H](O)[C@@H](O[C@H]5[C@H](O)[C@@H](O)[C@@H](O[C@H]6[C@H](O)[C@@H](O)[C@@H](O[C@H]7[C@H](O)[C@@H](O)[C@@H](O[C@H]8[C@H](O)[C@@H](O)[C@@H](O[C@H]9[C@H](O)[C@@H](O)[C@@H](O[C@H]2[C@H](O)[C@H]3O)O[C@@H]9CSCCNC(=S)N[C@H]2O[C@H](CO)[C@@H](O)[C@H](O)[C@@H]2O)O[C@@H]8CSCCNC(=S)N[C@H]2O[C@H](CO)[C@@H](O)[C@H](O)[C@@H]2O)O[C@@H]7CSCCNC(=S)N[C@H]2O[C@H](CO)[C@@H](O)[C@H](O)[C@@H]2O)O[C@@H]6CSCCNC(=S)N[C@H]2O[C@H](CO)[C@@H](O)[C@H](O)[C@@H]2O)O[C@@H]5CSCCNC(=S)N[C@H]2O[C@H](CO)[C@@H](O)[C@H](O)[C@@H]2O)O[C@@H]4CSCCNC(=S)N[C@H]2O[C@H](CO)[C@@H](O)[C@H](O)[C@@H]2O)[C@@H](O)[C@@H](O)[C@@H]1O [Compound No. 2]
IC50 [3]: 175 µM
Relative affinity [3]: 4.9
Relative molar affinity [3]: 0.7

OC[C@H]1O[C@H](OCC(CO[C@H]2O[C@H](CO)[C@@H](O)[C@H](O)[C@@H]2O)(CO[C@H]2O[C@H](CO)[C@@H](O)[C@H](O)[C@@H]2O)NC(=S)NCCSC[C@H]2O[C@@H]3O[C@H]4[C@H](O)[C@@H](O)[C@@H](O[C@H]5[C@H](O)[C@@H](O)[C@@H](O[C@H]6[C@H](O)[C@@H](O)[C@@H](O[C@H]7[C@H](O)[C@@H](O)[C@@H](O[C@H]8[C@H](O)[C@@H](O)[C@@H](O[C@H]9[C@H](O)[C@@H](O)[C@@H](O[C@H]2[C@H](O)[C@H]3O)O[C@@H]9CSCCNC(=S)NC(CO[C@H]2O[C@H](CO)[C@@H](O)[C@H](O)[C@@H]2O)(CO[C@H]2O[C@H](CO)[C@@H](O)[C@H](O)[C@@H]2O)CO[C@H]2O[C@H](CO)[C@@H](O)[C@H](O)[C@@H]2O)O[C@@H]8CSCCNC(=S)NC(CO[C@H]2O[C@H](CO)[C@@H](O)[C@H](O)[C@@H]2O)(CO[C@H]2O[C@H](CO)[C@@H](O)[C@H](O)[C@@H]2O)CO[C@H]2O[C@H](CO)[C@@H](O)[C@H](O)[C@@H]2O)O[C@@H]7CSCCNC(=S)NC(CO[C@H]2O[C@H](CO)[C@@H](O)[C@H](O)[C@@H]2O)(CO[C@H]2O[C@H](CO)[C@@H](O)[C@H](O)[C@@H]2O)CO[C@H]2O[C@H](CO)[C@@H](O)[C@H](O)[C@@H]2O)O[C@@H]6CSCCNC(=S)NC(CO[C@H]2O[C@H](CO)[C@@H](O)[C@H](O)[C@@H]2O)(CO[C@H]2O[C@H](CO)[C@@H](O)[C@H](O)[C@@H]2O)CO[C@H]2O[C@H](CO)[C@@H](O)[C@H](O)[C@@H]2O)O[C@@H]5CSCCNC(=S)NC(CO[C@H]2O[C@H](CO)[C@@H](O)[C@H](O)[C@@H]2O)(CO[C@H]2O[C@H](CO)[C@@H](O)[C@H](O)[C@@H]2O)CO[C@H]2O[C@H](CO)[C@@H](O)[C@H](O)[C@@H]2O)O[C@@H]4CSCCNC(=S)NC(CO[C@H]2O[C@H](CO)[C@@H](O)[C@H](O)[C@@H]2O)(CO[C@H]2O[C@H](CO)[C@@H](O)[C@H](O)[C@@H]2O)CO[C@H]2O[C@H](CO)[C@@H](O)[C@H](O)[C@@H]2O)[C@@H](O)[C@@H](O)[C@@H]1O [Compound No. 3, heptakis[6-S-[2-N′-tris(α-D-mannopyranosyloxymethyl)methylthioureido]ethyl-6-thio]cyclomaltoheptaose]
Relative affinity [3]: 41
Relative molar affinity [3]: 2.0

COC1OC(CO)C(O)C(O)C1O [Me-α-D-Glcp, methyl-α-D-glucopyranoside, reference compound]
Relative affinity ([3]; relative to Me-α-D-Glcp = 1): 1
Relative molar affinity ([3]; relative to Me-α-D-Glcp = 1): 1

OCC1OC(NC(=S)NCC2OC3OC4C(CNC(=S)NC5OC(CO)C(O)C(O)C5O)OC(OC5C(CNC(=S)NC6OC(CO)C(O)C(O)C6O)OC(OC6C(CNC(=S)NC7OC(CO)C(O)C(O)C7O)OC(OC7C(CNC(=S)NC8OC(CO)C(O)C(O)C8O)OC(OC8C(CNC(=S)NC9OC(CO)C(O)C(O)C9O)OC(OC9C(CNC(=S)NC%10OC(CO)C(O)C(O)C%10O)OC(OC2C(O)C3O)C(O)C9O)C(O)C8O)C(O)C7O)C(O)C6O)C(O)C5O)C(O)C4O)C(O)C(O)C1O [heptakis(6-deoxy-6-α-D-mannopyranosylthioureido)cyclomaltoheptaose, reference compound]
inhibition of the association between concanavalin A and yeast mannan ([3]; 175 µM): 8%

heptakis[6-S-[2-N′-[2,2,2-tris[5-(1-thio-α-D-mannopyranosyl)-2-oxapentyl]ethyl]thioureido]ethyl-6-thio]cyclomaltoheptaose [Compound No. 4]
increase in the solubility of the Taxotere versus absence of cyclodextrin [2]: ~500 times
solubility of the Taxotere in a solution of the compound [2]: 2000 µg/mL
Relative affinity [3]: 173
Relative molar affinity [3]: 8.2

heptakis[6-S-[2-N′-[2,2-bis[5-(1-thio-α-D-mannopyranosyl)-2-oxapentyl]-2-[5-(1-thio-β-D-glucopyranosyl)-2-oxapentyl]ethyl]thioureido]ethylthio]cyclomaltoheptaose [Compound No. 7]
Relative affinity [3]: 67
Relative molar affinity [3]: 4.8

heptakis[6-S-[2-N′-[2-[5-(1-thio-α-D-manno pyranosyl)-2-oxapentyl]-2,2-bis[5-(1-thio-β-D-glucopyranosyl)-2-oxapentyl]ethyl]thioureido]ethyl-6-thio]cyclomaltoheptaose [Compound No. 6]
Relative affinity [3]: 48
Relative molar affinity [3]: 6.9
recognition by ConA (in words) [3]: not recognized by ConA
